Assays:
[1] = target: Mitogen-activated protein kinase 11 (Homo sapiens) (UniProt Q15759); experiment: Selectivity interaction (KinomeScan (DiscoverX)) EUB0000229b MAPK11; conditions: at 10 µM
[2] = target: T1, Phosphatidylinositol 3-kinase C2 domain-containing subunit gamma (Homo sapiens) (UniProt O75747); experiment: Selectivity interaction (KinomeScan (DiscoverX)) EUB0000045b PIK3C2G
T1 sequence (whole entry): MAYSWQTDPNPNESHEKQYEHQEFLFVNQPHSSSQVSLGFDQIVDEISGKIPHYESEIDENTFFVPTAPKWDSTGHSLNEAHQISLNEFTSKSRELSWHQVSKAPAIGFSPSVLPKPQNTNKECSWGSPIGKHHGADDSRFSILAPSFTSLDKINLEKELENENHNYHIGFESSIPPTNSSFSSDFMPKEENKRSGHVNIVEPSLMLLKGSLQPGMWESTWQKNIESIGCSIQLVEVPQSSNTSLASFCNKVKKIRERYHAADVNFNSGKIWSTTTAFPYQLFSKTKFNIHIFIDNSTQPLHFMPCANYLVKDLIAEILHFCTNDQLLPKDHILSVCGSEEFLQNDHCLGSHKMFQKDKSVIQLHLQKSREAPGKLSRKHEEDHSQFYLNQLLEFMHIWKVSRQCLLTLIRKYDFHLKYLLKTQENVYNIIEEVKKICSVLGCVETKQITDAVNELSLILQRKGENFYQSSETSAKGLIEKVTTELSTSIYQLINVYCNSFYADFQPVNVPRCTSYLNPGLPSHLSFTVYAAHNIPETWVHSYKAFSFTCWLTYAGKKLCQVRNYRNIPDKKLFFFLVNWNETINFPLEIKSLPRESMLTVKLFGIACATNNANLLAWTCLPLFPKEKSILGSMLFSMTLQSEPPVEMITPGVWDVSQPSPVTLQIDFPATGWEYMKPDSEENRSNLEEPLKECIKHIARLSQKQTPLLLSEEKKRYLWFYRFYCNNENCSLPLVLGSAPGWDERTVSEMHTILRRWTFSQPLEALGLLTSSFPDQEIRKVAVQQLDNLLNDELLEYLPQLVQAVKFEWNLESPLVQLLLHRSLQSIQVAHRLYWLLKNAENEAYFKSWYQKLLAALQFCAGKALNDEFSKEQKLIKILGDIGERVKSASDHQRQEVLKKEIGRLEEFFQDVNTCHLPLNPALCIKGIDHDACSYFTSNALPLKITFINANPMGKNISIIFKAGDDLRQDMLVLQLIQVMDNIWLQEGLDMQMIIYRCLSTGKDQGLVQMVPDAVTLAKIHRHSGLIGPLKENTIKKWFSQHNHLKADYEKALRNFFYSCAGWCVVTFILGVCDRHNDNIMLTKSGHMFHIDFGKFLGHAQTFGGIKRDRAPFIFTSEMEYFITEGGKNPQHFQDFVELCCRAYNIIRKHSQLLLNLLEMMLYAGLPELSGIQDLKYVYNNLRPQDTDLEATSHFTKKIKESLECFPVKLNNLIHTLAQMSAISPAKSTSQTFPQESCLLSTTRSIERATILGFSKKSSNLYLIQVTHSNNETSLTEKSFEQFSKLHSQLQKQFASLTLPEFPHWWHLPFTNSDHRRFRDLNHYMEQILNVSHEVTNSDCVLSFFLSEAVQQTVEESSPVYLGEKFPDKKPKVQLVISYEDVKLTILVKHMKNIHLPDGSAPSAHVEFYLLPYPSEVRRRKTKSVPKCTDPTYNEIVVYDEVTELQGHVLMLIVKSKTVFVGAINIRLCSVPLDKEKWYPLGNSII

[3] = target: T2, MAP/microtubule affinity-regulating kinase 4 (Homo sapiens) (UniProt Q96L34); experiment: Selectivity interaction (KinomeScan (DiscoverX)) EUB0000655a MARK4; conditions: at 10 µM
T2 sequence (whole entry): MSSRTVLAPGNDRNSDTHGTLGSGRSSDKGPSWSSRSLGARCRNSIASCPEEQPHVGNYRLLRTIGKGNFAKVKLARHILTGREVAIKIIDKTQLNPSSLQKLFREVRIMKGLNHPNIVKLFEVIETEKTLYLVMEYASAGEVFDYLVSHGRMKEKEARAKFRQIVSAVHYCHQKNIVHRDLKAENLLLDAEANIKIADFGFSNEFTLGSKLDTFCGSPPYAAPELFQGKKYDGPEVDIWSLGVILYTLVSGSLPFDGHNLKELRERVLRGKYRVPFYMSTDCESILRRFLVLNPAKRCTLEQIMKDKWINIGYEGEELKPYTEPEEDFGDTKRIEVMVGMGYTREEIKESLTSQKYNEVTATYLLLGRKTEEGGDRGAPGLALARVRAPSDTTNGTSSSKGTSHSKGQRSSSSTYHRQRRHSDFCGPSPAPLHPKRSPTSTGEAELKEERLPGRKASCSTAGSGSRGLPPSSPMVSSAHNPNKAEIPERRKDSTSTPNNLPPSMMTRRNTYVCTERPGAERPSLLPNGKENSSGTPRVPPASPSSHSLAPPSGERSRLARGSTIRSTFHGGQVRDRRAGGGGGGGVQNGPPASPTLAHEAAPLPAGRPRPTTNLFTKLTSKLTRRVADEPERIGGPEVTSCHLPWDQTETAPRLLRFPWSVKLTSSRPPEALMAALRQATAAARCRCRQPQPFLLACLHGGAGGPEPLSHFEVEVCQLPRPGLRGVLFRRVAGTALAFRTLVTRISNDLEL

Chain of Mitogen-activated protein kinase 11 (Homo sapiens) (Q15759 whole entry, the tested form may be a part): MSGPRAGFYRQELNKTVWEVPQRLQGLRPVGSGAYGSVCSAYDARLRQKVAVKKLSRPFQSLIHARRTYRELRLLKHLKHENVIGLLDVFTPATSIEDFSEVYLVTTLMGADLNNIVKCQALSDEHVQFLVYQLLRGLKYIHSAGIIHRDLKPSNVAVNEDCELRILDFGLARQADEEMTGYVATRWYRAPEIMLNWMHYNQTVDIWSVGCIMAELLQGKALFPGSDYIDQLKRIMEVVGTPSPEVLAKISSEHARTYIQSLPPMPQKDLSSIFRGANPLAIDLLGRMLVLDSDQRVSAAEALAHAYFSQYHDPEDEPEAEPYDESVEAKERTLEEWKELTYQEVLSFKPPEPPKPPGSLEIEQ

`COc1cc(N(C)c2ccnc3ccc(C(F)(F)F)cc23)cc(OC)c1OC` gave a % binding [1] of 90%.

In the case of `C=CC(=O)Nc1cc(-n2c(=O)ccc3cnc4ccc(-c5ccc(NS(C)(=O)=O)cc5)cc4c32)ccc1C`, the % of control ([2]; at 1 µM) is reported as 100% and the % of control ([2]; at 10 µM) is reported as 8.7%.

`CN(C)CCOc1ccc(-c2nc(-c3ccncc3)c(-c3ccc4c(c3)CC/C4=N\O)[nH]2)cc1` gave a % of control [3] of 100%.
